Assay results published in ChEMBL document CHEMBL1201862, “PubChem BioAssay data set” (2004).
The source made the active and inactive calls.

Experiments:
[1] = Luminescence Cell-Based Dose Retest to Confirm Inhibitors of Cancer Stem Cells. [Related pubchem assays (depositor defined):AID2717, AID2721]; format: functional; conditions: Homo sapiens
H9c2 = experiment: cells; format: functional, cell-based; conditions: Rattus norvegicus, H9c2, Myocardium;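 also: confirmatory concentration-response retest of ultra-high-throughput screening hits for modulation of myocardial damage; cell death induced by hydrogen peroxide oxidative stress; compound pretreatment for 60 min then peroxide exposure for 2 h; potency is for protecting the cells against peroxide damage rather than for killing them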
P388 = experiment: cells; format: functional
P388/ADR = experiment: cells; format: functional; conditions: Mus musculus
SN12K1 = experiment: cells; format: functional
cells = format: functional
[2] = P. falciparum Dd2 growth inhibitors, dose response, SYBR Green, cherry-picked samples (AID 1159567); format: functional, cell-based

**Q.** Which AC50 [1] does the source give for `COc1ccccc1-c1sc2ccccc2c1C#CC1(O)CCCCC1` here?
**A.** 5.11 µM (active)

**Q.** Which IC50 (H9c2) does the source give for `O=C(COc1cccc(F)c1)Nc1nc(-c2ccccn2)cs1` here?
**A.** > 79 µM (inactive)

**Q.** For `O=S(=O)(CCBr)CCBr`, which GI50 (P388; Mus musculus, P388) is on record?
**A.** 2.13 µM (inactive)

**Q.** What about the GI50 (P388/ADR) of the same compound?
**A.** 2.84 µM (inactive)

**Q.** And the GI50 (SN12K1; Homo sapiens, SN12K1)?
**A.** 6.59 µM (inactive)

**Q.** For `COc1ccc(OC)c(/C=N/NC(=O)c2cc3c(OC)c(OC)ccc3[nH]2)c1`, which IC50 (H9c2) is on record?
**A.** > 79 µM (inactive)

**Q.** With `CC(=O)C(=O)NC1/C=C(C)\C=C/C(O)C/C=C(C)\C=C/C(O)CC2OC(=O)C1(C)C(=O)C2C` (configuration not stated) as the compound, how does the GI50 (P388; Mus musculus, P388) read?
**A.** 10.4 µM (inactive)

**Q.** And the GI50 (P388/ADR)?
**A.** 28.4 µM (inactive)

**Q.** What about the GI50 (SN12K1; Homo sapiens, SN12K1) of the same compound?
**A.** > 100 µM (inactive)

**Q.** For `CCN(CC)CCCOC(=O)/C=C/c1c(C)[nH]c(=O)[nH]c1=O`, which GI50 (P388; Mus musculus, P388) is on record?
**A.** > 625 µM (inactive)

**Q.** And the GI50 (P388/ADR)?
**A.** 426 µM (inactive)

**Q.** What about the GI50 (SN12K1; Homo sapiens, SN12K1) of the same compound?
**A.** > 625 µM (inactive)

**Q.** For `Cc1c(/C=N/NC(=O)c2ccc(O)cc2)c2ccccn2c1C(=O)c1ccc(F)cc1`, which IC50 (H9c2) is on record?
**A.** > 79 µM (inactive)

**Q.** Which GI50 (P388; Mus musculus, P388) does the source give for `CSc1nc(NC2OC(CO)C(O)C(O)C2O)c(N)c(=O)n1C` (configuration not stated) here?
**A.** > 100 µM (inactive)

**Q.** What about the GI50 (P388/ADR) of the same compound?
**A.** > 100 µM (inactive)

**Q.** What about the GI50 (SN12K1; Homo sapiens, SN12K1) of the same compound?
**A.** > 100 µM (inactive)

**Q.** Which IC50 (cells) does the source give for `O=C(N/N=C/C(Br)=C/c1ccccc1)c1cnccn1` here?
**A.** 31.1 µM (active)

**Q.** Which GI50 (P388; Mus musculus, P388) does the source give for `O=C(NCCCCCCNC(=O)n1cc(F)c(=O)[nH]c1=O)NCCCOCCOCCOCCOCCOCCOCCOCCOCCOCCOCCOCCOCCOCCOCCOCCOCCOCCOCCOCCOCCOCCCNC(=O)C(O)C(O)C(OC1OC(CO)C(O)C(O)C1O)C(O)CO` (configuration not stated) here?
**A.** 0.566 µM (active)

**Q.** And the GI50 (P388/ADR)?
**A.** 0.43 µM (active)

**Q.** What about the GI50 (SN12K1; Homo sapiens, SN12K1) of the same compound?
**A.** 6.46 µM (inactive)

**Q.** Which GI50 (P388; Mus musculus, P388) does the source give for `C=C1CC(OC)(C(OC)C(=O)N(C)[C@H]2OCO[C@H]3C2O[C@H](C[C@@H](COC)OC)C(C)(C)C3OC)O[C@H](C)[C@@H]1C` (some centres not stated) here?
**A.** 3.58 µM (inactive)

**Q.** What about the GI50 (P388/ADR) of the same compound?
**A.** 5.58 µM (inactive)

**Q.** What about the GI50 (SN12K1; Homo sapiens, SN12K1) of the same compound?
**A.** 10.9 µM (inactive)

**Q.** For `C[n+]1ccc(Nc2ccc(NC(=O)c3ccc(Nc4cc[n+](C)c5ccc([N+](=O)[O-])cc45)cc3[N+](=O)[O-])cc2)cc1`, which GI50 (P388) is on record?
**A.** 0.617 µM (active)

**Q.** And the GI50 (SN12K1)?
**A.** 23.4 µM (inactive)

**Q.** For `CCCNC(=O)N1[C@@H](C#N)[C@H](c2ccccc2-c2ccccc2F)[C@@H]1CO`, which AC50 [2] is on record?
**A.** 18.8 µM (active)

**Q.** For `COc1ccc2c3c([nH]c2c1)[C@@H](CO)N(Cc1cccc(Cl)c1)CC31CCN(C(C)=O)CC1`, which AC50 [2] is on record?
**A.** 3.22 µM (active)

**Q.** Which AC50 [2] does the source give for `CN1CCN(C(=O)C[C@H]2C[C@@H]3c4cc(NC(=O)Nc5ccc(C(F)(F)F)cc5)ccc4O[C@@H]3[C@@H](CO)O2)CC1` here?
**A.** 5.16 µM (active)

**Q.** With `COc1cccc2c1C(=N)c1c(O)c3c(c(O)c1C2=O)C[C@@](O)(C(C)=O)C[C@@H]3OC1CC(N)C(O)C(C)O1` (some centres not stated) as the compound, how does the GI50 (P388; Mus musculus, P388) read?
**A.** 0.000159 µM (active)

**Q.** And the GI50 (P388/ADR)?
**A.** 0.000673 µM (active)

**Q.** What about the GI50 (SN12K1; Homo sapiens, SN12K1) of the same compound?
**A.** 0.124 µM (active)

**Q.** Which GI50 (P388; Mus musculus, P388) does the source give for `CC(C)[C@](O)(C(=O)OCC1=CC[N+]2([O-])CC[C@@H](O)[C@@H]12)[C@H](C)O` (some centres not stated) [INDICINE N-OXIDE] here?
**A.** 6490 µM (inactive)

**Q.** What about the GI50 (P388/ADR) of the same compound?
**A.** > 8990 µM (inactive)

**Q.** What about the GI50 (SN12K1; Homo sapiens, SN12K1) of the same compound?
**A.** > 10000 µM (inactive)

**Q.** Which results are given for `COc1cc(O)c(Cc2ccccc2O)c(O)c1C(=O)CCc1ccccc1` [UVARETIN]?
**A.** GI50 (P388; Mus musculus, P388): 4.37 µM (inactive); GI50 (P388/ADR): 5.38 µM (inactive); GI50 (SN12K1; Homo sapiens, SN12K1): 5.55 µM (inactive)
